This note sets out measurements from the METLIN SMRT retention time set (Domingo-Almenara et al. 2019).

A short description of this data set: gradient 5% acetonitrile 3 min, to 50% in 2 min, to 85% in 15 min, held 3 min, 100 µL/min. The settings on record: column: Zorbax Extend-C18 2.1 x 50 mm; eluents: water / acetonitrile, 0.1% formic acid. The gist of the method:
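Retention times come from adduct peaks that were picked computationally and then checked by hand. The standards, pure and pooled in mixtures of ~100 molecules, were run on a Zorbax Extend-C18 column (2.1 × 50 mm, 1.8 μm) at 100 μL/min with water and acetonitrile, each with 0.1% formic acid. Detection was by quadrupole time-of-flight mass spectrometry in positive and negative ionization mode, with a dead volume of 40 μL and a dwell volume of 900 μL.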
As for `CCCn1cc(S(=O)(=O)Nc2cc(F)ccc2C)c2cccnc21`, the RP-LC retention time is 926 s. Compound `Clc1ccccc1OCc1nn2c(CSc3ccccc3)nnc2s1` had an RP-LC retention time of 1020 s.

`O=C(C1=NN(Cc2ccccc2F)c2ccc(Cl)cc2S1(=O)=O)N1CCOCC1` had an RP-LC retention time of 875 s.

As to `O=C(CN1C(=O)COc2ccc(C(=O)N3CCCC3)cc21)N1CCN(c2ccccn2)CC1`, the RP-LC retention time is 583 s. In turn, `CCOc1ccc(CC(=O)N2C[C@@H]3C[C@H](NC(=O)c4ccccc4)[C@H]2C3)cc1` had an RP-LC retention time of 799 s. `CN1C(=O)C(C)(C(=O)Nc2ccccc2)Oc2cccnc21` (configuration not stated): the RP-LC retention time came to 788 s. As to `Cc1ccc(NC(=O)N2CCCC2c2nncn2-c2ccccc2)cc1C` (configuration not stated), the RP-LC retention time came to 767 s. In the case of `CC(=O)Nc1ccc(CC(=O)NC(C(=O)N2CCCc3ccccc32)c2ccccc2)cc1` (configuration not stated) it was 803 s; in that of `O=C(Nc1ccc(Cl)cc1)N1CCC(n2c(C(F)(F)F)nc3cccnc32)CC1`, 942 s; in that of `O=C(Nc1ccccc1)C1CCN(S(=O)(=O)c2cc(-c3noc(C4CCC4)n3)cs2)CC1`, 1080 s. The value for `Cn1nc(-c2nc(C3CC3)no2)c2c1CCN(S(=O)(=O)c1ccc(F)cc1)C2` was 925 s. For `Cn1c(C(=O)NCCCN2CCCCCC2)cc2c(-c3cccs3)nn(-c3ccccc3)c21`, the RP-LC retention time was 795 s. Compound `CC(C)CCNc1ccc(-c2nc(-c3ccc(F)cc3)no2)cn1` showed an RP-LC retention time of 1230 s. As to `CCc1ccc(N2C[C@@]34C=C[C@@H](O3)[C@H](C(=O)OC)[C@@H]4C2=O)cc1`, the RP-LC retention time was 793 s.

In the case of `CCCCNC(=O)Cc1c(C)n(C)c2nc(-c3ccccc3)nn2c1=O`, the RP-LC retention time is 665 s. In the case of `Cn1nccc1-c1cccc(-c2noc(-c3cccs3)n2)c1` it was 1030 s; in that of `CCOC(=O)c1c(S(=O)(=O)N2CCC(C(=O)Nc3ccc(Cl)cc3)CC2)c(C)n(CC)c1C`, 957 s. Regarding `CC(C)c1nc2ccc(CCC(=O)NC(C)c3ccccc3)cc2[nH]1` (configuration not stated), the RP-LC retention time amounted to 610 s.

The compound `Cc1cccc(CCNC(=O)c2cc3n(n2)CC(C)(C(=O)NCc2ccccc2)N(C)C3=O)c1` (configuration not stated) registered an RP-LC retention time of 814 s. In the case of `CC1(C(=O)NCc2ccc(F)cc2)Cn2cnc(C(=O)NC3CC3)c2C(=O)N1C1CC1` (configuration not stated) it was 670 s; in that of `O=C([C@@H]1C[C@H](F)CN1S(=O)(=O)c1ccc2c(c1)OCCO2)N1CCCCC1`, 759 s; in that of `COc1cccc(NC(=O)N2CCN(c3nc4ccccc4n3C)CC2)c1`, 616 s. In the case of `CCCCOC(=O)CSc1nnc(-c2ccc(Br)cc2)o1` it was 1190 s; in that of `CCn1nccc1C(=O)N1CC(Oc2ccc(-c3nc(-c4ccccc4)no3)cc2)C1`, 1120 s. The value for `CCN1CCn2cc(S(=O)(=O)Nc3cccc(C)c3C)cc2C1=O` was 729 s; that for `O=C(NCCCN1CCc2ccccc2C1)c1c(OCC2CC2)cc(=O)n2c1CCCCC2` was 566 s; that for `O=C(c1ccc2ccccc2n1)N1CCC(Oc2ccccc2)C1` (configuration not stated) was 937 s.

In the case of `O=C(O)c1cn2ccnc(-c3ccccc3)c2n1`, the RP-LC retention time was determined as 644 s. The value for `CCCOC(=O)c1ccc(Oc2c(C)oc3cc(OCC#N)ccc3c2=O)cc1` was 958 s; that for `CCn1c(SC)nnc1-c1nn(C)c2c1CN(C(=O)Cc1ccc(F)cc1)CC2` was 771 s; that for `O=C(c1cn2ccnc(-c3ccccc3)c2n1)N1CCN(C(=O)c2ccco2)CC1` was 686 s. `COc1ccc(-c2nc(C3CC(=O)N(c4ccc(F)c(Cl)c4)C3)no2)cc1OC` (configuration not stated) displayed an RP-LC retention time of 963 s.

As to `Cc1ccc(C)c(-c2coc(-c3ccc(NC(=O)c4sccc4C)cc3)n2)c1`, the RP-LC retention time stood at 1330 s. In the case of `COc1ccc(-c2nc(C)cc3nn(CC(=O)NCc4ccccc4)c(=O)n23)cc1` it was 788 s; in that of `Cc1nn(CCCC(=O)NCCN2CCCC2)c(=O)c2c(-n3cccc3)n(-c3ccccc3)nc12`, 666 s. With `Cc1cc(C)c(S(=O)(=O)N2CCCCC2C(=O)N2CCN(c3ccccc3F)CC2)c(C)c1` (configuration not stated), the RP-LC retention time was 1250 s.

`Cc1cccc(CN2CCN(C3CCN(C(=O)Nc4ccccc4)CC3)C2=O)c1` displayed an RP-LC retention time of 851 s. The value for `COC(=O)c1cnc2nc(C)ccc2c1Nc1ccccc1F` was 649 s; that for `CCOC(=O)c1c(NC(=O)c2ccc(S(=O)(=O)N(C)C)cc2)sc(C)c1C` was 1170 s; that for `CSc1cccc(NC(=O)c2nnn(Cc3ccc(F)cc3)c2-n2cccc2)c1` was 1150 s.

`O=C(Nc1c(-c2ccccc2)nc2ccccn12)c1c(F)cccc1F` had an RP-LC retention time of 630 s. As for `Cc1ccc(S(=O)(=O)N2CC(c3nc(C)no3)C3(CCOCC3)C2)cc1` (configuration not stated), the RP-LC retention time was 845 s. Turning to `N#Cc1ccc(C(=O)N2CCC(c3cc(N)on3)CC2)cc1`, the RP-LC retention time was 641 s.

`COCCNC(=O)C1CCN(C(=O)c2cc3oc(C)cc3n2Cc2c(F)cccc2Cl)CC1` displayed an RP-LC retention time of 804 s. The value for `CCc1c(C)nc2ncnn2c1N1CCOCC1` was 653 s. The value for `Cc1cc2nn(CC(=O)NCC3CCCO3)c(=O)n2c(Nc2ccccc2C)n1` (configuration not stated) was 808 s; that for `CC(C)(C)c1noc(-c2ccnc(-n3cnc(C(=O)N4CCSCC4)c3)c2)n1` was 952 s. Compound `Cc1nc(-c2cnccn2)n(CC(=O)Nc2cccc(C(C)C)c2)c(=O)c1C` gave an RP-LC retention time of 855 s. For the compound `CCCN1CCN(CCCNC(=O)c2c(N3CCCC3=O)c3cc(F)ccc3n2CC)CC1`, the RP-LC retention time is 602 s. The compound `CC1CCN(c2nc(C(=O)NCc3ccccn3)nc3c2cnn3C)CC1` yielded an RP-LC retention time of 660 s. `COc1cc(NC(=O)N2CCC3(CC2)N=C(c2cccc(F)c2)C(=O)N3)cc(OC)c1` yielded an RP-LC retention time of 822 s. Regarding `O=C(NCC1CC1)c1cn(-c2cc(-c3nc(C4CC4)no3)ccn2)cn1`, the RP-LC retention time is 848 s. The value for `COc1cccc(-c2nc(Cn3c(C)nc4ccccc4c3=O)no2)c1OC` was 816 s; that for `Cc1cc(C)c(C(=O)N2CCC(CC(=O)NCc3ccc(F)cc3)CC2)[nH]1` was 759 s; that for `COc1ccc(Cl)cc1NC(=O)CN1CCCC(COCc2ccccc2)C1` (configuration not stated) was 630 s.

Turning to `Cc1ccc(C(CC(=O)NCCCN2CCCC2)N2Cc3ccccc3C2=O)cc1` (configuration not stated), the RP-LC retention time amounted to 639 s.

For the compound `Cc1ccc(C)c(-c2csc(Nc3ccc(F)cn3)n2)c1`, the RP-LC retention time came to 1150 s. `COc1cc([C@@H]2c3cc4c(cc3[C@H](O)[C@@H](CO)[C@@H]2C(=O)Nc2ccc(C)cc2)OCO4)cc(OC)c1OC` yielded an RP-LC retention time of 763 s. Take `CCCCN1C(=O)C(NC(=O)c2cccc(OC)c2)(C(F)(F)F)C(C(=O)OC)=C1C` (configuration not stated): the RP-LC retention time is 988 s. Take `NC(=O)c1ncn2c(=O)n(CCCl)nnc12`: the RP-LC retention time came out at 645 s. In the case of `COc1ccc(N2CC(NC(=O)C(=O)c3c(C)[nH]c4ccccc34)CC2=O)cc1` (configuration not stated) it was 707 s; in that of `CCN(CCN(C)C)C(=O)c1cc2c(s1)-c1ccc(Cl)cc1S(=O)(=O)C2`, 660 s. The compound `CCOCc1nc(C2CCCN2S(=O)(=O)c2cccc3nsnc23)no1` (configuration not stated) came in with an RP-LC retention time of 836 s. Turning to `O=C(CN1CCN(c2ccccc2F)C1=O)Nc1ccc(OC(F)(F)F)cc1`, the RP-LC retention time was found to be 855 s. With `COc1ccccc1Nc1c(-c2ccc(N3CCOCC3)cc2)nc2cnccn12`, the RP-LC retention time was 806 s. The value for `COc1ccc(S(=O)(=O)Nc2ccccc2C(=O)Nc2ccc3c(c2)OCCO3)cc1` was 880 s. With `CN(CCNC(=O)c1cc(=O)n(C)c2c1c(=O)n(C)c(=O)n2C)C1CCCCC1`, the RP-LC retention time turned out to be 624 s. The compound `O=S(=O)(c1cccs1)N1CC(c2nc(-c3ccncc3)no2)C1` registered an RP-LC retention time of 679 s. The value for `O=C(Cc1csc(NS(=O)(=O)c2ccc(Cl)cc2)n1)NCc1cccs1` was 725 s; that for `Cc1nn2c(CNS(=O)(=O)c3cc(C)c(C)cc3C)c(-c3ccccc3)nc2s1` was 941 s; that for `CCc1ccccc1NS(=O)(=O)c1cc(-c2cc(C(F)(F)F)on2)sc1C` was 1210 s. The value for `O=C(NCCc1ccco1)C1CCCN(c2nc3ccccc3n(Cc3ccccc3)c2=O)C1` (configuration not stated) was 1090 s; that for `C[C@H]1CC2C3CCC4=CC(=O)C=C[C@]4(C)[C@@]3(Cl)[C@@H](O)C[C@]2(C)[C@@]1(O)C(=O)CO` (some centres not stated) was 832 s. In the case of `CC1Cc2cc(S(=O)(=O)CCC(=O)N3CCN(Cc4ccccc4)CC3)ccc2N1C(=O)C1CC1` (configuration not stated) it was 666 s; in that of `Cc1oc(-c2ccn[nH]2)cc1S(=O)(=O)Nc1ccc(F)c(Cl)c1`, 852 s; in that of `O=C(Nc1ccccc1Cl)N1CCN(CCn2c(-c3ccncc3)nc3cccnc32)CC1`, 588 s. The compound `O=C(c1ccc2c(c1)OCO2)N1CCCC1c1nc(-c2cccc(C(F)(F)F)c2)no1` (configuration not stated) gave an RP-LC retention time of 1080 s.
